Test results from patent US20240083861A1, “HSD17B13 INHIBITORS AND USES THEREOF” (FL2022-001, Inc., priority 2020, published 2024).

Each compound was assayed against T1, Recombinant human HSD17B13 enzyme (Homo sapiens, UniProt Q7Z5P4) (assay: HSD17b13 NAD(P)H-Glo biochemical assay). Conditions: 50 uM estradiol, 1 mM NAD+, NAD(P)H-Glo luminescence; read-out: HSD17β13 IC50.
T1 sequence (Q7Z5P4 20-300): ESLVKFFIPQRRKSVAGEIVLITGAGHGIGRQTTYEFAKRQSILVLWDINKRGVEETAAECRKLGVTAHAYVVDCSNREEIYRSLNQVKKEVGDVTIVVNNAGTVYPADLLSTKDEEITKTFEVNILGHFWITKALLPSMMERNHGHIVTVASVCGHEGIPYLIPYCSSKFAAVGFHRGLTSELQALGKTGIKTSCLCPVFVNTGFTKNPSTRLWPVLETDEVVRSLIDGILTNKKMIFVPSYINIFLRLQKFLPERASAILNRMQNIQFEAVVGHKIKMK
Outline: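 Recombinant human HSD17B13 in 20 mM Tris pH7.4 with 0.002% Tween-20 and 0.02% BSA was preincubated with inhibitor for 20 minutes at RT. The reaction ran 3 hours at 37° C with 50 uM estradiol and 1 mM NAD+ (final). NADH formed was detected by NAD(P)H-Glo luminescence after 1 hour at RT.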

| Structure (SMILES) | IC50 |
| --- | --- |
| CC(=O)N1CCN(c2cc3c(cn2)c(-c2cc(C(F)(F)F)c(F)c(O)c2F)nn3C)CC1 [Compound 9.62, 1-(4-(3-(2,4-Difluoro-3-hydroxy-5-(trifluoromethyl)phenyl)-1-methyl-1H-pyrazolo[4,3-c]pyridin-6-yl)piperazin-1-yl)ethanone] | 100 to 1000 nM |
| CN(c1cc2c(cn1)c(-c1cc(C(F)(F)F)c(F)c(O)c1F)nn2C)C1CCC1 [Compound 9.07, 3-(6-(Cyclobutyl(methyl)amino)-1-methyl-1H-pyrazolo[4,3-c]pyridin-3-yl)-2,6-difluoro-5-(trifluoromethyl)phenol] | < 100 nM |
| CS(=O)(=O)N1CCN(c2cnc3c(-c4cc(O)c(F)c(C(F)(F)F)c4)n[nH]c3n2)CC1 [Compound 10.04, 2-Fluoro-5-(6-(4-(methylsulfonyl)piperazin-1-yl)-1H-pyrazolo[3,4-b]pyrazin-3-yl)-3-(trifluoromethyl)phenol] | 100 to 1000 nM |
| CS(=O)(=O)N1CCN(c2ccc3oc(-c4cc(O)cc(C(F)(F)F)c4)nc3c2)CC1 [Compound 4.02, 3-(5-(4-(Methylsulfonyl)piperazin-1-yl)benzo[d]oxazol-2-yl)-5-(trifluoromethyl)phenol] | 100 to 1000 nM |
| CC(=O)N1CCN(c2cc3c(cn2)c(-c2cc(C(F)(F)F)c(F)c(O)c2F)nn3C)C2(CC2)C1 [Compound 9.87, 1-(4-(3-(2,4-Difluoro-3-hydroxy-5-(trifluoromethyl)phenyl)-1-methyl-1H-pyrazolo[4,3-c]pyridin-6-yl)-4,7-diazaspiro[2.5]octan-7-yl)ethanone] | < 100 nM |
| O=C(NC1CCCCC1)c1ccc2oc(-c3cc(O)c(F)c(F)c3)nc2c1 [Compound 1.03, N-Cyclohexyl-2-(3,4-difluoro-5-hydroxyphenyl)benzo[d]oxazole-5-carboxamide] | < 100 nM |
| Cn1nc(-c2cc(C(F)(F)F)c(F)c(O)c2F)c2ncc(N3CCOCC34CC4)cc21 [Compound 9.119, 2,6-Difluoro-3-(1-methyl-6-(7-oxa-4-azaspiro[2.5]octan-4-yl)-1H-pyrazolo[4,3-b]pyridin-3-yl)-5-(trifluoromethyl)phenol] | < 100 nM |
| CN(C)C(=O)C1CN(c2cc3c(cn2)c(-c2cc(C(F)(F)F)c(F)c(O)c2F)nn3C)CCO1 (stereo not drawn) [Compound 9.65, 4-(3-(2,4-Difluoro-3-hydroxy-5-(trifluoromethyl)phenyl)-1-methyl-1H-pyrazolo[4,3-c]pyridin-6-yl)-N,N-dimethylmorpholine-2-carboxamide] | 100 to 1000 nM |
| Cn1nc(-c2cc(C(F)(F)F)c(F)c(O)c2F)c2cnc(N(C3CCOCC3)C3CC3)cc21 [Compound 9.129, 3-(6-(Cyclopropyl(tetrahydro-2H-pyran-4-yl)amino)-1-methyl-1H-pyrazolo[4,3-c]pyridin-3-yl)-2,6-difluoro-5-(trifluoromethyl)phenol] | < 100 nM |
| CN1CC(NC(=O)c2ccc3oc(-c4cc(C(F)(F)F)c(F)c(O)c4F)nc3c2)C1 [Compound 1.18, 2-(2,4-Difluoro-3-hydroxy-5-(trifluoromethyl)phenyl)-N-(1-methylazetidin-3-yl)benzo[d]oxazole-5-carboxamide] | 1000 to 30000 nM |
| O=C(NC1CCCC1)c1ccc2oc(-c3cc(C(F)(F)F)c(F)c(O)c3F)nc2c1 [Compound 1.22, N-Cyclopentyl-2-(2,4-difluoro-3-hydroxy-5-(trifluoromethyl)phenyl)benzo[d]oxa-zole-5-carboxamide] | < 100 nM |
| Cn1nc(-c2cc(C(F)(F)F)c(F)c(O)c2F)c2cnc(N3CCOCC3C3CC3)cc21 (stereo not drawn) [Compound 9.38, 3-(6-(3-Cyclopropylmorpholino)-1-methyl-1H-pyrazolo[4,3-c]pyridin-3-yl)-2,6-difluoro-5-(trifluoromethyl)phenol] | < 100 nM |
| Cn1nc(-c2ccc(Cl)c(O)c2Cl)c2cnc(N3CCN(S(C)(=O)=O)C4(CC4)C3)nc21 [Compound 12.07, 2,6-Dichloro-3-(1-methyl-6-(4-(methylsulfonyl)-4,7-diazaspiro[2.5]octan-7-yl)-1H-pyrazolo[3,4-d]pyrimidin-3-yl)phenol] | 1000 to 30000 nM |
| O=C(NC12CC(O)(C1)C2)c1ccc2oc(-c3cc(O)c(F)c(C(F)(F)F)c3)nc2c1 [Compound 1.11, 2-(4-Fluoro-3-hydroxy-5-(trifluoromethyl)phenyl)-N-(3-hydroxybicyclo[1.1.1]pentan-1-yl)benzo[d]oxazole-5-carboxamide] | 100 to 1000 nM |
| Cn1nc(-c2cc(C(F)(F)F)c(F)c(O)c2F)c2cc(F)c(N3CCOCC34CC4)nc21 [Compound 9.81, 2,6-Difluoro-3-(5-fluoro-1-methyl-6-(7-oxa-4-azaspiro[2.5]octan-4-yl)-1H-pyrazolo[3,4-b]pyridin-3-yl)-5-(trifluoromethyl)phenol] | < 100 nM |

Results, then the compound that gave them:

| IC50 | Structure (SMILES) |
| --- | --- |
| < 100 nM | Cn1nc(-c2cc(C(F)(F)F)c(F)c(O)c2F)c2cnc(N(Cc3ccccc3)C3CC3)nc21 [Compound 18.117, 3-(6-(Benzyl(cyclopropyl)amino)-1-methyl-1H-pyrazolo[3,4-d]pyrimidin-3-y1)-2,6-difluoro-5-(trifluoromethyl)phenol] |
| < 100 nM | Cn1nc(-c2cc(C(F)(F)F)c(F)c(O)c2F)c2cnc(N3CCC(C)(O)CC3)nc21 [Compound 18.65, 1-(3-(2,4-Difluoro-3-hydroxy-5-(trifluoromethyl)phenyl)-1-methyl-1H-pyrazolo[3,4-d]pyrimidin-6-yl)-4-methylpiperidin-4-ol] |
| 100 to 1000 nM | Cn1nc(-c2cc(C(F)(F)F)c(F)c(O)c2F)c2cnc(N3CCC(C(=O)O)CC3)nc21 [Compound 18.30, 1-(3-(2,4-Difluoro-3-hydroxy-5-(trifluoromethyl)phenyl)-1-methyl-1H-pyrazolo[3,4-d]pyrimidin-6-y1)piperidine-4-carboxylic Acid] |
| 100 to 1000 nM | CN(C)CCC1CN(c2ncc3c(-c4cc(C(F)(F)F)c(F)c(O)c4F)nn(C)c3n2)CCO1 (stereo not drawn) [Compound 18.39, 3-(6-(2-(2-(Dimethylamino)ethyl)morpholino)-1-methyl-1H-pyrazolo[3,4-d]pyrimidin-3-y1)-2,6-difluoro-5-(trifluoromethyl)phenol] |
| 100 to 1000 nM | Oc1cc(-c2n[nH]c3cc(-c4ccc(O)c(Cl)c4)ccc23)ccc1F [Compound 16, 2-Chloro-4-(3-(4-fluoro-3-hydroxyphenyl)-1H-indazol-6-yl)phenol] |
| 100 to 1000 nM | CS(=O)(=O)N1CCC(c2cc3[nH]nc(-c4cc(C(F)(F)F)cc(O)c4F)c3cn2)CC1 [Compound 13, 2-Fluoro-3-(6-(1-(methylsulfonyl)piperidin-4-yl)-1H-pyrazolo[4,3-c]pyridin-3-yl)-5-(trifluoromethyl)phenol] |
| < 100 nM | Cn1nc(-c2cc(C(F)(F)F)c(F)c(O)c2F)c2cnc(N3CCC(C(N)=O)CC3)nc21 [Compound 18.09, 1-(3-(2,4-Difluoro-3-hydroxy-5-(trifluoromethyl)phenyl)-1-methyl-1H-pyrazolo[3,4-d]pyrimidin-6-yl)piperidine-4-carboxamide] |
| < 100 nM | Cn1nc(-c2cc(C(F)(F)F)c(F)c(O)c2F)c2cnc(N3CCOC(C)(c4ccccc4)C3)nc21 (stereo not drawn) [Compound 18.119, 2,6-Difluoro-3-(1-methyl-6-(2-methyl-2-phenylmorpholino)-1H-pyrazolo[3,4-d]pyrimidin-3-y1)-5-(trifluoromethyl)phenol] |
| 1000 to 30000 nM | Cn1nc(-c2cc(O)cc3ccccc23)c2cnc(N3CCN(S(C)(=O)=O)C4(CC4)C3)nc21 [Compound 12.09, 4-(1-Methyl-6-(4-(methylsulfonyl)-4,7-diazaspiro[2.5]octan-7-yl)-1H-pyrazolo[3,4-d]pyrimidin-3-yl)naphthalen-2-ol] |
| < 100 nM | Cn1nc(-c2cc(C(F)(F)F)c(F)c(O)c2F)c2cnc(N3CCC4(CCCO4)CC3)nc21 [Compound 18.99, 2,6-Difluoro-3-(1-methyl-6-(1-oxa-8-azaspiro[4.5]decan-8-yl)-1H-pyrazolo[3,4-d]pyrimidin-3-y1)-5-(trifluoromethyl)phenol] |
| 100 to 1000 nM | CN1CCN(c2ncc3c(-c4cc(C(F)(F)F)c(F)c(O)c4F)nn(C)c3n2)CC1 [Compound 18.72, 2,6-Difluoro-3-(1-methyl-6-(4-methylpiperazin-1-yl)-1H-pyrazolo[3,4-d]pyrimidin-3-y1)-5-(trifluoromethyl)phenol] |
| < 100 nM | Cn1nc(-c2cc(C(F)(F)F)c(F)c(O)c2F)c2cnc(N3CCN(C(=O)Nc4ccccc4)C4(CC4)C3)cc21 [Compound 21.08, 7-(3-(2,4-Difluoro-3-hydroxy-5-(trifluoromethyl)phenyl)-1-methyl-1H-pyrazolo[4,3-c]pyridin-6-y1)-N-phenyl-4,7-diazaspiro[2.5]octane-4-carboxamide] |
| 100 to 1000 nM | Cn1nc(-c2cc(C(F)(F)F)c(F)c(O)c2F)c2cnc(N3CCO[C@@H](CO)C3)nc21 [Compound 18.131, (R)-2,6-Difluoro-3-(6-(2-(hydroxymethyl)morpholino)-1-methyl-1H-pyrazolo[3,4-d]pyrimidin-3-y1)-5-(trifluoromethyl)phenol] |
| < 100 nM | Cn1nc(-c2cc(C(F)(F)F)c(F)c(O)c2F)c2cnc(N3CCC(CO)CC3)nc21 [Compound 18.14, 2,6-Difluoro-3-(6-(4-(hydroxymethyl)piperidin-1-y1)-1-methyl-1H-pyrazolo[3,4-d]pyrimidin-3-y1)-5-(trifluoromethyl)phenol] |

Same assay, conditions: at 10 uM compound; read-out: HSD17β13 % inhibition at 10 uM

| inhibition at 10 µM | Structure (SMILES) |
| --- | --- |
| 40% | CS(=O)(=O)N1CCN(c2ccc3oc(-c4cc(C(F)(F)F)c(F)c(O)n4)nc3c2)CC1 [Compound 7.02, 3-Fluoro-6-(5-(4-(methylsulfonyl)piperazin-1-yl)benzo[d]oxazol-2-yl)-4-(trifluoromethyl)pyridin-2-ol] |
